In publication PMC9132415, “Identification of 1H-pyrazolo[3,4-b]pyridine derivatives as novel and potent TBK1 inhibitors: design, synthesis, biological evaluation, and molecular docking study” (Journal of Enzyme Inhibition and Medicinal Chemistry, 2022):

How the values were obtained:
[1] = Cytotoxicity to normal cells; format: cell-based; conditions: human, human umbilical vein endothelial cells (HUVECs)
From the text: Figure S1. The cytotoxicity of compound 15y on Human Umbilical Vein Endothelial Cells
(HUVECs). Data are representative of 3 independent experiments and are shown in mean ± SD
value. Nolin fit 4-parameters model were used to fit the curve and to calculate IC50 values by
(1 picture or pasted object on this page, not shown here)

[2] = system: ifnb and cxcl10 gene expression in RAW264.7 cells; test: mRNA detection of TBK1 downstream genes (RT-PCR), LPS-stimulated RAW264.7 cells; format: cell-based; conditions: LPS-stimulated murine RAW264.7 cells
PI3K(p110a/p85a) = PI3K(p110a/p85a) (Homo sapiens, UniProt P42336); test: Kinase selectivity profile (SelectScreen); format: biochemical; conditions: remaining kinase activity at 1.0 μM
Protocol: (§1) Compound 15y was evaluated for their inhibitory activities against 31 kinases at a single concentration (1 µM). Two different assay platforms were available for profiling—activity and binding. The Z′-LYTE and Adapta kinase activity assays were used most extensively for profiling and a smaller subset of kinases might be profiled using the LanthaScreen Eu Kinase Binding Assays.

SRPK1 = SRPK1 (Homo sapiens, UniProt Q96SB4); test: Kinase selectivity profile (SelectScreen); format: biochemical; conditions: remaining kinase activity at 1.0 μM
Protocol: as §1

ALK = ALK (Homo sapiens, UniProt Q9UM73); test: Kinase selectivity profile (SelectScreen); format: biochemical; conditions: remaining kinase activity at 1.0 μM
Protocol: as §1

EGFR = EGFR (Homo sapiens, UniProt P00533); test: Kinase selectivity profile (SelectScreen); format: biochemical; conditions: remaining kinase activity at 1.0 μM
Protocol: as §1

IKKβ = IKKβ (Homo sapiens, UniProt O14920); test: Kinase selectivity profile (SelectScreen); format: biochemical; conditions: remaining kinase activity at 1.0 μM
Protocol: as §1

[3] = system: ifnb and cxcl10 gene expression in THP-1 cells; test: mRNA detection of TBK1 downstream genes (RT-PCR), poly(I:C)-stimulated THP-1 cells; format: cell-based, human; conditions: compound at 1 µM

ALK, sequence (Q9UM73 19-1620): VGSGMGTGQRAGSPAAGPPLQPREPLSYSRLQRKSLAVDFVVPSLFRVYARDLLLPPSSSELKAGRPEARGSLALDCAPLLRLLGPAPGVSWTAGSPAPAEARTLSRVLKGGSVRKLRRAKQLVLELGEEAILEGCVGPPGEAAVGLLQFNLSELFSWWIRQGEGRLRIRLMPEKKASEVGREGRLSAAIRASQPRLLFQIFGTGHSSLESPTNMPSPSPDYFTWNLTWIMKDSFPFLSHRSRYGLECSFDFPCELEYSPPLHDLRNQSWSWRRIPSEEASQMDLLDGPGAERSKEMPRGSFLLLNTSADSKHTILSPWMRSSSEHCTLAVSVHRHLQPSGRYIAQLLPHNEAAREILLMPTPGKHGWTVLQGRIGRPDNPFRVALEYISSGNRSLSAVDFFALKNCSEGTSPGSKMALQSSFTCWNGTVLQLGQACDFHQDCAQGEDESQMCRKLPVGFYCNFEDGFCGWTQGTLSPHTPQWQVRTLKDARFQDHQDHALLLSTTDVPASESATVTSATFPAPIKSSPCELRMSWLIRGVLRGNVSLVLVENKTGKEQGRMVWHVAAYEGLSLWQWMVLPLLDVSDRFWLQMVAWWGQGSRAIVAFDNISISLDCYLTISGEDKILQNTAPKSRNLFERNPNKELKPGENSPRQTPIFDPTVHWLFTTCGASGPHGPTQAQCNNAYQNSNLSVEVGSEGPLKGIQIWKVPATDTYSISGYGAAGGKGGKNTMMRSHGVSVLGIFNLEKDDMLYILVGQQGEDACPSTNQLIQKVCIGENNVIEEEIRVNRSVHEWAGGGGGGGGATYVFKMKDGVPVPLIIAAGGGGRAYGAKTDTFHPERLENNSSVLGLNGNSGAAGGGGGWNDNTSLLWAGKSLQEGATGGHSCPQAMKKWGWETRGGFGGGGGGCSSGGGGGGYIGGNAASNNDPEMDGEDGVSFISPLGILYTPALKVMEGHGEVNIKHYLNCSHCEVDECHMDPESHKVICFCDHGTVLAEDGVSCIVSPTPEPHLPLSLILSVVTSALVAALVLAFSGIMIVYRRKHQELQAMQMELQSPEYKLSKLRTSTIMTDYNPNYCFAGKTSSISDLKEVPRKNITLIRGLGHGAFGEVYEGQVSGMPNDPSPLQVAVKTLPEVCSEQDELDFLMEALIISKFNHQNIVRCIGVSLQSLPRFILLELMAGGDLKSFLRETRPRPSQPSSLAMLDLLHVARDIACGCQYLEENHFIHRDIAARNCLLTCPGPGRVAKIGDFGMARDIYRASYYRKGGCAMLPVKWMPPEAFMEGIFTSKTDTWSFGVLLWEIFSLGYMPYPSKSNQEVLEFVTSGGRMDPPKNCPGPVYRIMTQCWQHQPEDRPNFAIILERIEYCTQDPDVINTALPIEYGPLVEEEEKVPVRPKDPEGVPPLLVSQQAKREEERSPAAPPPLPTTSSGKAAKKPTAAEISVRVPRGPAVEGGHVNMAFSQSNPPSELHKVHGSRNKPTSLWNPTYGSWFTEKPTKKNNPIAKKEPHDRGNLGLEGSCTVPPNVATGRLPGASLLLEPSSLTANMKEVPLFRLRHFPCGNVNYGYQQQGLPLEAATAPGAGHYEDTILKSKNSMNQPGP
EGFR, sequence (P00533 25-1210): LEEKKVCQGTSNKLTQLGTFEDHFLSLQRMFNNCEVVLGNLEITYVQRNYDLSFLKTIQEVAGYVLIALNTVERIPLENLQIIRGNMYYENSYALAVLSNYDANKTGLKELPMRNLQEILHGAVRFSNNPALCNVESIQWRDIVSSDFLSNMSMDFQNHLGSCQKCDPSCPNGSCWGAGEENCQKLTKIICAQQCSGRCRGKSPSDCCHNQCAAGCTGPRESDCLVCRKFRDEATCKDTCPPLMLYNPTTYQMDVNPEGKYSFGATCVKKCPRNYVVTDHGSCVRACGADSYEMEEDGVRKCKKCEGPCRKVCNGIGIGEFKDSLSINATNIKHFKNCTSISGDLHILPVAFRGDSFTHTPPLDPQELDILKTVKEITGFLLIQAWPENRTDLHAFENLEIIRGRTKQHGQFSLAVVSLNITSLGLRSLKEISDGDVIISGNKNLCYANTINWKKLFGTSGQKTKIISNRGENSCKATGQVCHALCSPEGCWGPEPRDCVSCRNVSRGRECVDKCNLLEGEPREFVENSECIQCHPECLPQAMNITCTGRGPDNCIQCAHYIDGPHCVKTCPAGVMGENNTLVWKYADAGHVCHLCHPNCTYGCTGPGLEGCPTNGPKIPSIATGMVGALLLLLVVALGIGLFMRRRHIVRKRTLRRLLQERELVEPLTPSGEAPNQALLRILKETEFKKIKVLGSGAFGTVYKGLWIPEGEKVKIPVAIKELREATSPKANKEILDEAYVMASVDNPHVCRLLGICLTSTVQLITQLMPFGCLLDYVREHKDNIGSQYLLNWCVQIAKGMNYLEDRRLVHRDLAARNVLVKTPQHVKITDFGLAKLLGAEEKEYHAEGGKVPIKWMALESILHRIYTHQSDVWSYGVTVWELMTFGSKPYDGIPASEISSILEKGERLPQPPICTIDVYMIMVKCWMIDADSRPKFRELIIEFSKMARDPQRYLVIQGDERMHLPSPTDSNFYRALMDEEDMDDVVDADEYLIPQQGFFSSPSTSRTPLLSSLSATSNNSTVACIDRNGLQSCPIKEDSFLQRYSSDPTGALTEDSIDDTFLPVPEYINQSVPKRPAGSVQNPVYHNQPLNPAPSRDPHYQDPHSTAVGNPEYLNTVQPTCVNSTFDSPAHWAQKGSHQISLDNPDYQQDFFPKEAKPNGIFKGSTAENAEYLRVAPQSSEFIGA
IKKβ, sequence (O14920 whole entry): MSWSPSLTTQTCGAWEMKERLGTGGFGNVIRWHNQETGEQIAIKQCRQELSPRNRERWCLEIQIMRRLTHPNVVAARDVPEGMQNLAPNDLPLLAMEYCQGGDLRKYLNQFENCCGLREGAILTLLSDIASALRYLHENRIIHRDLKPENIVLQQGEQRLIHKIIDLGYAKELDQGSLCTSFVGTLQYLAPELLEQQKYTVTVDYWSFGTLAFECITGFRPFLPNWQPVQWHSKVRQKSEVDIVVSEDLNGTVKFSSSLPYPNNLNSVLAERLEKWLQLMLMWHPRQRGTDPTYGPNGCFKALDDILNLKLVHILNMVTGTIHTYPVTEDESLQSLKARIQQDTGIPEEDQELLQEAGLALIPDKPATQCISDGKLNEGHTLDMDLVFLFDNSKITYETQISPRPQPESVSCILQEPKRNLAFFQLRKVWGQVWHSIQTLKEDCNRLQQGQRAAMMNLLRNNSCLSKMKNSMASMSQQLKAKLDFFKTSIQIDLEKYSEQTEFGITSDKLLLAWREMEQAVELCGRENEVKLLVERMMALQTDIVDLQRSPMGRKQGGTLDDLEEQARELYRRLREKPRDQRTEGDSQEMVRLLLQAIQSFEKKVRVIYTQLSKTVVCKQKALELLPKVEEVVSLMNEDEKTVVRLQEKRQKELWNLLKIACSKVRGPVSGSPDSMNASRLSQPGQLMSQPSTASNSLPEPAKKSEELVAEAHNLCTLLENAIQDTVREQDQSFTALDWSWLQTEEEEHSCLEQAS
SRPK1, sequence (Q96SB4 whole entry): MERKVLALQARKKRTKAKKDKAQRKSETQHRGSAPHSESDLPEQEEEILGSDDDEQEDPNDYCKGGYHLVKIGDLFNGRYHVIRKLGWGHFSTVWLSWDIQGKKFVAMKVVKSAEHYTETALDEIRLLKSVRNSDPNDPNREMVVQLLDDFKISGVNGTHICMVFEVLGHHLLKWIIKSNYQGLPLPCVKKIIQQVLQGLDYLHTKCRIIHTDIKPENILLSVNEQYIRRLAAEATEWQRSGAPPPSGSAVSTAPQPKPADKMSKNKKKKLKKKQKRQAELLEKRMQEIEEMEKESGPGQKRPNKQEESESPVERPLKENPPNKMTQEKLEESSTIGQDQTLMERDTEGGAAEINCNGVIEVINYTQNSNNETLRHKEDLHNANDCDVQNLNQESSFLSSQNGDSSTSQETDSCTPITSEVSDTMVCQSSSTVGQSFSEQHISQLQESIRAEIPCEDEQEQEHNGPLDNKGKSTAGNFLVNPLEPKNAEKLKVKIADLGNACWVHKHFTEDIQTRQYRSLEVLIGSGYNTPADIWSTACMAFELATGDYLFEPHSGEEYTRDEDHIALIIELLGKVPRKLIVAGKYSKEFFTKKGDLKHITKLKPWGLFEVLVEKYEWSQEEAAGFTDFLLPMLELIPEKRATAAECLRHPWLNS

SMILES: Cc1nc2c(F)cc(-c3n[nH]c4ncc(-c5cccc(S(N)(=O)=O)c5)cc34)cc2n1C(C)C [Compound 15y]
- IC50 [1]: 21.2 µM
- inhibition of ifnb and cxcl10 expression [2]: profound activity
- %kinase activity @ 1.0 μM, PI3K(p110a/p85a) (PI3K(p110a/p85a)): 69%
- %kinase activity @ 1.0 μM, SRPK1 (SRPK1): 58%
- %kinase activity @ 1.0 μM, ALK (ALK): 28%
- %kinase activity @ 1.0 μM, EGFR (EGFR): 66%
- %kinase activity @ 1.0 μM, IKKβ (IKKβ): 32%
- inhibition of cxcl10 expression [3]: > 93%
- inhibition of ifnb expression [3]: > 93%
